What was measured:
α1 NKA/Src receptor = test: multi-step assay of MB5 derivatives (NKA and E-cadherin expression, 3D-spheroid invasion); format: cell-based; conditions: for potency relative to MB5: ability to restore NKA and E-cadherin expression and 3D-spheroid invasion data
Description: A multi-step assay was further designed to identify which compounds among the MB5 derivatives could be developed as an anti-cancer agent in terms of their potential to stop tumor invasion and growth. This multi-step assay included: (A) an ATPase activity assay- to confirm the binding of derivatives to NKA; (B) an assay to measure inhibition of ouabain-induced ERK activation and NKA endocytosis as well as basal Src/ERK/endocytotic activity in PY-17 cells (NKA/Src inverse agonist); (C) an assay to measure the ability to increase the expression of α1 NKA and E-cadherin level and decrease mesenchymal markers (ZEB1, SNAIL, vimentin) and Myc in cancer cells; (D) a 3D culture to test the anti-invasive and anti-growth potential of spheroids; and (E) an in vivo tumor xenograft model (by transplantation into NOD/SCOD mice). Upon analysis of the results of these experiments, it was believed that some of the MB5 derivative compounds show better or similar properties than MB5 as shown for certain of the compounds in FIGS. 6A-6G. Examples of experiments testing the derivatives are further provided for MIIRMB5 D1 (FIGS. 7A-7B), MIIRMB5 D3 (FIGS. 8A-8C), MIIRMB5 D4 (FIGS. 9A-9C), MIIRMB5 D5 (FIGS. 10A-10C), MIIRMB5 D6 (FIGS. 11A-11C), MIIRMB5 D7 (FIGS. 12A-12B), MIIRMB5 D13 (FIGS. 13A-13C), MIIRMB5 D14 (FIGS. 14A-14C), and MIIRMB5 D15 (FIGS. 15A-15C).

[1] = target: T1, α1 NKA/Src receptor complex (Sus scrofa, UniProt P05024); test: ouabain-induced Src/ERK activation in LLC-PK1 cells (immunostaining, Western blot); format: cell-based, pig; conditions: baseline
T1 construct: endogenous in cells; host or cells: LLC-PK1
Procedure: Western blot, Immunoprecipitation and Immunostaining. Cells were grown to 100% confluency and Western blot were performed as described before. Images were quantified with ImageJ software from NIH. Immunoprecipitation studies were performed as described before. α1 NKA immunostaining was performed by growing cells on sterilized coverslips in 6 well tissue culture plates and permeabilization/fixation with ice-cold methanol followed by blocking with 5% horse serum and 0.1% Triton X-100 in 1× Phosphate buffered saline (PBS) for 30 minutes. Coverslips were then stained with an anti-α1 NKA antibody (Millipore, Cat #05-369) at 1:100 dilution in 1% BSA (Bovine Serum Albumin) containing 1×PBS solution for overnight. Next day after three washes, coverslips were stained with Alexa Fluor 488 conjugated anti-mouse secondary antibody (Thermo-Fisher) for 1 hour, washed extensively and then imaged using a fluorescent microscope with GFP filter or confocal microscope (LEICA-DMIRE2). E-cadherin and occludin immunostaining was performed in a similar manner. Phospho-Src, phospho ERK1/2 immunostaining were performed as described before and images were taken with a LEICA DMIRE2 confocal microscope.
Characterization of MB5 activity on the NKA receptor function known as the NKA/Src binary receptor mechanism was conducted in a pig kidney epithelial cells (LLC-PK1)-based platform using immunostaining and Western blot analyses. […] The change of NKA conformation that occurs upon binding of agonists such as ouabain, results in the release and activation of the Src kinase domain from the “Naktide” site of NKA CD3, while the other interaction (constitutive) persists between NKA CD2 and the SH2 domain of Src. […] In LLC-PK1-derived cells with low NKA receptor constitutive activity due to substantial reduction (over 80%) of α1 NKA expression by siRNA (PY17 cells), increased basal Src and ERK activity is observed due to the abnormally high amount of Src kinase that remains in an active conformation. […]

YFP-tagged α1 NKA = target: T2, YFP-tagged α1 NKA (Rattus norvegicus, UniProt P06685); test: ouabain-induced α1 NKA endocytosis in YFP-α1-TCN cells; format: cell-based; conditions: TCN-YFP α1 cells
T2 construct: expressed in transfected cells; host or cells: YFP-α1-TCN cells
Procedure: It is appreciated that ouabain induces Src/ERK activation (increased protein phosphorylation) of LLC-PK1 cells by binding to α1 NKA and thereby initiates a signaling cascade which results in the endocytosis of the α1 NKA to terminate the signaling.
α1 NKA endocytosis assay. Endocytosis assay was performed as described before.
Characterization of MB5 activity on the NKA receptor function known as the NKA/Src binary receptor mechanism was conducted in a pig kidney epithelial cells (LLC-PK1)-based platform using immunostaining and Western blot analyses. […] The change of NKA conformation that occurs upon binding of agonists such as ouabain, results in the release and activation of the Src kinase domain from the “Naktide” site of NKA CD3, while the other interaction (constitutive) persists between NKA CD2 and the SH2 domain of Src.

DU145 derived subclones = test: Western blot / immunostaining of EMT markers, Src/FAK activation and proliferation markers in DU145 derived subclones; format: cell-based, human; conditions: subclone 2 cells, PP2 treatment (24 hours)

Nc1c(O)ccc2c(=O)c3cccc(O)c3oc12 [MIIRMB5 D4]
potency relative to MB5 (α1 NKA/Src receptor): about 10 fold

O=c1[nH]c2c(ccc3c(=O)c4cccc(O)c4oc32)o1 [MIIRMB5 D3]
potency relative to MB5 (α1 NKA/Src receptor): about 10 fold

O=S1(=O)c2cccc(O)c2Oc2c1ccc(O)c2O [MIIRMB5 D13]
effective concentration / dosage (α1 NKA/Src receptor; NKA and E-cadherin expression, 3D-spheroid invasion): about 100 nM

C[C@@H]1O[C@@H](O[C@H]2C[C@@H](O)[C@]3(CO)[C@H]4[C@H](O)C[C@]5(C)[C@@H](C6=CC(=O)OC6)CC[C@]5(O)[C@@H]4CC[C@]3(O)C2)[C@H](O)[C@H](O)[C@H]1O [ouabain, reference compound]
ERK activation / NKA receptor function by the compound alone [1]: activated ERK signal
α1 NKA internalization (endocytosis) by the compound alone (YFP-tagged α1 NKA): induced α1 NKA internalization (endocytosis)

CC(C)(C)n1nc(-c2ccc(Cl)cc2)c2c(N)ncnc21 [PP2, reference compound]
E-cadherin expression (DU145 derived subclones): increase in E-cadherin expression
